These results are taken from ChEMBL document CHEMBL2074328, “Up-regulation of transporters of the MRP family by drugs and toxins” (Toxicol Lett, 2001).

Data set [1] has as its target T1, ATP-binding cassette sub-family C member 2 (Rattus norvegicus, UniProt Q63120). Description: TP_TRANSPORTER: Western blot, primary hepatocytes. The format is functional, cell-based, Hepatocyte. On the technique in general: A western blot detects proteins with antibodies after separation by electrophoresis.
Data set [2] concerns the target ATP-binding cassette sub-family C member 5 (Homo sapiens, UniProt O15440). The data set is described as follows: (§1) TP_TRANSPORTER: RT-PCR in HepG2 cells. Format: functional, cell-based.
Data set [3] concerns the target Multidrug resistance associated protein (Homo sapiens) (UniProt Q96QA9). The data set is described as §1. Format: functional, cell-based.
Data set [4] has as its target T1, ATP-binding cassette sub-family C member 2. The data set is described as follows: TP_TRANSPORTER: Northern blot from primary hepatocytes. Format: functional, cell-based, Hepatocyte.
For data set [5], the target named is T2, ATP-binding cassette sub-family C member 2 (Homo sapiens, UniProt Q92887). Description: TP_TRANSPORTER: Northern blot from HepG2 cells. Format: functional, cell-based.
T2 sequence (Q92887 whole entry): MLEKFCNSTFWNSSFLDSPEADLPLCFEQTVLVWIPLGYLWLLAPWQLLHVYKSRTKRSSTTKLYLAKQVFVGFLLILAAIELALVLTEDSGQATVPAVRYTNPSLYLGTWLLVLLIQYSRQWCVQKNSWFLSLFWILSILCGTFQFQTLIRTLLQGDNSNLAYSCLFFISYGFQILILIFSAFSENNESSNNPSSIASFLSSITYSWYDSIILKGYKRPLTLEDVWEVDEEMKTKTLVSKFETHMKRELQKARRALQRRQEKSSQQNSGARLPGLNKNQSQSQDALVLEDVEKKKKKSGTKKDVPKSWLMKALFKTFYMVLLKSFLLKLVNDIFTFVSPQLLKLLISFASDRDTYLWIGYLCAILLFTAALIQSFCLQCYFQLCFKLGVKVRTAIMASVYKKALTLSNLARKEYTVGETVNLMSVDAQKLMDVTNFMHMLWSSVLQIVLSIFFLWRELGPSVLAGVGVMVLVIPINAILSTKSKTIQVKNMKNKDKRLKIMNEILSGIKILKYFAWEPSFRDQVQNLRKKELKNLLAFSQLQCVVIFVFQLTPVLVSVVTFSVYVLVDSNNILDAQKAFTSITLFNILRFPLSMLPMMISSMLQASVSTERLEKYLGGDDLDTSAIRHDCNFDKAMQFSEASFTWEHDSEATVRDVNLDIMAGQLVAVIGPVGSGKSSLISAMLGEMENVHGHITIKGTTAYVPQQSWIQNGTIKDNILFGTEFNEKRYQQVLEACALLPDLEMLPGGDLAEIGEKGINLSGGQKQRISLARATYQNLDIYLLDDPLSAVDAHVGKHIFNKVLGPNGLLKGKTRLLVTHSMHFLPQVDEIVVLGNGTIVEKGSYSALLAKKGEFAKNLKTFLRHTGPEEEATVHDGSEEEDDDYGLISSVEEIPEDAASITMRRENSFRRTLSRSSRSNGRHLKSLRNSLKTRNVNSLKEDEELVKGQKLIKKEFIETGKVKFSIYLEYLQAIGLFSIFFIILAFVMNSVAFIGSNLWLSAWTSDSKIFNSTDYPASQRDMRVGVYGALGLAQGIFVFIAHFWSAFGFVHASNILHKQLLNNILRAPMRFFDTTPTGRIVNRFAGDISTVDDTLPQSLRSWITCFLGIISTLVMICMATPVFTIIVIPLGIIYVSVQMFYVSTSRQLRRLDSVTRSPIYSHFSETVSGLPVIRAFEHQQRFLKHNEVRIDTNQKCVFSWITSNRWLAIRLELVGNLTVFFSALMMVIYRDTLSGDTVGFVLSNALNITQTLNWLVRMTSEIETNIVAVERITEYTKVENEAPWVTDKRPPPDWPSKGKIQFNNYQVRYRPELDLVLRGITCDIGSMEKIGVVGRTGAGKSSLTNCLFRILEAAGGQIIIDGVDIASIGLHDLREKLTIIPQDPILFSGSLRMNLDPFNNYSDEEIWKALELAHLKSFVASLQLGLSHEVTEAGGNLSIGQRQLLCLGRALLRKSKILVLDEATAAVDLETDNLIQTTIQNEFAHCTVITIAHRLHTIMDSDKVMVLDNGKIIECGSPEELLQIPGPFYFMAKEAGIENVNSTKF
Data set [6] addresses T3, Multidrug resistance-associated protein 1 (Homo sapiens, UniProt P33527). Description: TP_TRANSPORTER: Northern blot from MCF-7 cells. Format: functional, cell-based. To be noted: mcf7.
The target of data set [7] is T3, Multidrug resistance-associated protein 1. The data set is described as follows: TP_TRANSPORTER: Western blot, MCF-7 cells. As to conditions: mcf7. Format: functional, cell-based.
Data set [8] deals with T2, ATP-binding cassette sub-family C member 2. Described as §1. Format: functional, cell-based.

Sequence of ATP-binding cassette sub-family C member 5 (O15440 whole entry): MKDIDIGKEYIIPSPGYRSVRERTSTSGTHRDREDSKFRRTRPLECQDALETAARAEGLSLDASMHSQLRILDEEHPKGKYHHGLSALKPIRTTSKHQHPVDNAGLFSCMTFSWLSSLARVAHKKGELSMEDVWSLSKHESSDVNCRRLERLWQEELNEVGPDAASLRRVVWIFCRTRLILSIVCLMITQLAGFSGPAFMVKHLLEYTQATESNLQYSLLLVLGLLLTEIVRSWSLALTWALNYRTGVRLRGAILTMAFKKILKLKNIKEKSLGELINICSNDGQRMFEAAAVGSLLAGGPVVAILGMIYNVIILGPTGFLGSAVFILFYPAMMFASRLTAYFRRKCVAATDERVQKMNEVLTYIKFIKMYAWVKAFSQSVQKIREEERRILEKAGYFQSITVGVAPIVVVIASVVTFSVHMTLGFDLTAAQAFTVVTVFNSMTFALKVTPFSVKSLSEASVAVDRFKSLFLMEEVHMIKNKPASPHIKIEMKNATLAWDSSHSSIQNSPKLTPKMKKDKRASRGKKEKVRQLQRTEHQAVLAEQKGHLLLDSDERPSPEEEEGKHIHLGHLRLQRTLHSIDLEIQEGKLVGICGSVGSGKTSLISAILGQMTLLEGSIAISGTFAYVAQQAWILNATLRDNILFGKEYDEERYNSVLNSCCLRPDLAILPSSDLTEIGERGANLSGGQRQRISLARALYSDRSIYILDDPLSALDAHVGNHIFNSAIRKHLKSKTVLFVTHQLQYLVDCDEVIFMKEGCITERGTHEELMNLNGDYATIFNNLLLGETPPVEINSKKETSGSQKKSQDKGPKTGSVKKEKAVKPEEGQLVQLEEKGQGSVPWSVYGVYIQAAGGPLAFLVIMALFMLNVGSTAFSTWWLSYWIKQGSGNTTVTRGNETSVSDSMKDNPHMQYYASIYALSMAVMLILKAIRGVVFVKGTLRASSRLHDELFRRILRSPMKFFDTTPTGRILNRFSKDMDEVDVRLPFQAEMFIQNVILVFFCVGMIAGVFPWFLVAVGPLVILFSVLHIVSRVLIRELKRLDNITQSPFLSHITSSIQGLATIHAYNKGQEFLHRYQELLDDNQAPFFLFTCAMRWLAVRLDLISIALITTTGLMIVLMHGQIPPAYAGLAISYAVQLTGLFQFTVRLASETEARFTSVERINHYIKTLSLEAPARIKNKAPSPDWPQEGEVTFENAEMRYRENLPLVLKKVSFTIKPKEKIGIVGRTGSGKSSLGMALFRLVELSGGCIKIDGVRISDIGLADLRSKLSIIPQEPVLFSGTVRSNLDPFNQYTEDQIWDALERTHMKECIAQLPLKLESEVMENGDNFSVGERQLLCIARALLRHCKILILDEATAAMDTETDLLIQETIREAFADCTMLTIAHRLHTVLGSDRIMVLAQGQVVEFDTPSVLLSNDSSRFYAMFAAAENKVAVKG
T3 sequence (P33527 whole entry): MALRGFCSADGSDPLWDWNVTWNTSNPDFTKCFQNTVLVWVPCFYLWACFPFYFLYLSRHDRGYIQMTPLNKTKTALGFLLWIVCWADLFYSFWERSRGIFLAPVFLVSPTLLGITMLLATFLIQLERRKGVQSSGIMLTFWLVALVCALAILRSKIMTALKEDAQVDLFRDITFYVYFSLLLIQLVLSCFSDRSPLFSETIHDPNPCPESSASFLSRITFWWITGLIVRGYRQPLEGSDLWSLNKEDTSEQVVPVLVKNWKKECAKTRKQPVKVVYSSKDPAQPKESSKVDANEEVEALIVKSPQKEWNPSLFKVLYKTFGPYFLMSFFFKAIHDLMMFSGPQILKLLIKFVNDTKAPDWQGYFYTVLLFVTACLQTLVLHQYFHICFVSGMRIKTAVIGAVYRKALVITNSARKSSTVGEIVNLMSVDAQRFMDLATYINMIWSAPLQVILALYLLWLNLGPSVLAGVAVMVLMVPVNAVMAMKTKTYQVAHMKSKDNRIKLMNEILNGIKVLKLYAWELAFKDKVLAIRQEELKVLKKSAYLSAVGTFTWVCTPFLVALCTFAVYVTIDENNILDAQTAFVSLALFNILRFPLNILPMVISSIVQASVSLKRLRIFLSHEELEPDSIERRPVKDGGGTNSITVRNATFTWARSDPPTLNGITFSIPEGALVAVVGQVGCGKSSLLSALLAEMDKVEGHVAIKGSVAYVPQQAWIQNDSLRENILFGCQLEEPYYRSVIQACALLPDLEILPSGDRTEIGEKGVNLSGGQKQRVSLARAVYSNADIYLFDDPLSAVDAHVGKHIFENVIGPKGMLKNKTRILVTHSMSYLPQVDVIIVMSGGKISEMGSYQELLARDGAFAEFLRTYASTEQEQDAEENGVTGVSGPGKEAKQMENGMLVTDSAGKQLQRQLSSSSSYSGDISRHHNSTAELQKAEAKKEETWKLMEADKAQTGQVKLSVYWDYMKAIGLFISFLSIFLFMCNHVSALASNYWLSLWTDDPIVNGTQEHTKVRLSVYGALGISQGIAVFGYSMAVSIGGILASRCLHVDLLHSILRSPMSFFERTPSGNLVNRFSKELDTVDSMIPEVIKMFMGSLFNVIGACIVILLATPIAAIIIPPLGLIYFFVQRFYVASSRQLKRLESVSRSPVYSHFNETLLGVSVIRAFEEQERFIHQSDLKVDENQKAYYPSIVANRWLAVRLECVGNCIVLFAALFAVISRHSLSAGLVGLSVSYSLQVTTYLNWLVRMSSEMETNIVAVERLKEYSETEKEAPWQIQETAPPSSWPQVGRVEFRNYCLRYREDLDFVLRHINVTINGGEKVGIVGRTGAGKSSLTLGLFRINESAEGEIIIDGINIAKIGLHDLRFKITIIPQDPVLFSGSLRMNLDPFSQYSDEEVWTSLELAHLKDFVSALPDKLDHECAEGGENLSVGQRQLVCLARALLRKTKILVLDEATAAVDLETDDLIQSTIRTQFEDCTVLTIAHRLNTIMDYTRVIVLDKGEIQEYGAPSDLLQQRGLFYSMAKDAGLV

On to `CC(=O)Nc1ccc2c(c1)Cc1ccccc1-2` [2-ACETYLAMINOFLUORENE], for which the Activity result in data set [1], in data set [2], in data set [3], in data set [4] and in data set [5] was “inducer [+]” throughout.
For the compound `C[C@@H]1C[C@H]2[C@@H]3CCC4=CC(=O)C=C[C@]4(C)[C@@]3(F)[C@@H](O)C[C@]2(C)[C@@]1(O)C(=O)CO` [DEXAMETHASONE], the Activity result in data set [1] and in data set [4] was “inducer [+]” in each case.
Take `CC(C)(C)c1cc(O)ccc1O` [E319]: the Activity result in data set [6] and in data set [7] was “inducer [+]” each time.
On to `CCC1(c2ccccc2)C(=O)NC(=O)NC1=O` [PHENOBARBITAL], for which the Activity result in data set [5] is “inducer [+]”.
As to `CO[C@H]1/C=C/O[C@@]2(C)Oc3c(C)c(O)c4c(O)c(c(/C=N/N5CCN(C)CC5)c(O)c4c3C2=O)NC(=O)/C(C)=C\C=C\[C@H](C)[C@H](O)[C@@H](C)[C@@H](O)[C@@H](C)[C@H](OC(C)=O)[C@@H]1C` [RIFAMPIN], in data set [2], the Activity entry was “inducer [+]”.
Take `CC[C@]1(O)C[C@@H]2CN(CCc3c([nH]c4ccccc34)[C@@](C(=O)OC)(c3cc4c(cc3OC)N(C)[C@H]3[C@@](O)(C(=O)OC)[C@H](OC(C)=O)[C@]5(CC)C=CCN6CC[C@]43[C@@H]65)C2)C1` [VINBLASTINE]: the Activity entry in data set [6], in data set [1], in data set [7] and in data set [4] was “inducer [+]” throughout.
CISPLATIN [listing 1 of 2 here]: the Activity result in data set [1], in data set [2], in data set [8] and in data set [4] was “inducer [+]” in each case.
As to CISPLATIN [listing 2 of 2 here], the Activity result in data set [3] was “inducer [+]”.
